Patent US20120107323A1, “KINASE PROTEIN BINDING INHIBITORS” (University of Florida, priority 2009, published 2012)

Molecular target: T1, FAK and IGF-1R (Homo sapiens, UniProt Q05397)
T1 construct: endogenous in cells; host or cells: C8161 (A2) and A375 (A3) melanoma cells
Experiment: Coimmunoprecipitation of FAK and IGF-1R in A375 melanoma cells
Format: cell-based
Details: average IC50, A375 cells, immunoprecipitation with antibody against FAK; read-out: IC50, disruption of FAK/IGF-1R binding
Excerpt: Computational Docking The crystal structures of the N-terminal domain of FAK (PDB code 2AL6) (22) and the kinase domain of IGF-1R(PDB 1P40A) (23) were utilized for in silico molecular modeling of their interaction as previously described. The three-dimensional coordinates of compound NSC344553 (INT2-31), obtained from the database of the National Cancer Institute, Developmental Therapeutics Program (NCI/DTP), were docked onto the predicted interface of the amino-terminus of FAK (amino acids 127-243) with the intracytoplasmic portion of IGF-1R (21). […] 100 orientations were created for NSC344553 in the target site and were scored using the computer program grid-based scoring function. […] The intermolecular energies for all configurations of NSC 344553 in binding to FAK-NT2 were calculated as the sum of electrostatic and van der Waals energies. These energy terms were evaluated as correlation functions, which were computed efficiently with Fast Fourier Transforms. […] Bound proteins were boiled in 6× Laemmli buffer and analyzed by SDS-PAGE and Western blotting. […] The intensity of the bands in the western blots was measured with scion image analysis software program. […]

T1 sequence (Q05397 2-1052 limits assumed): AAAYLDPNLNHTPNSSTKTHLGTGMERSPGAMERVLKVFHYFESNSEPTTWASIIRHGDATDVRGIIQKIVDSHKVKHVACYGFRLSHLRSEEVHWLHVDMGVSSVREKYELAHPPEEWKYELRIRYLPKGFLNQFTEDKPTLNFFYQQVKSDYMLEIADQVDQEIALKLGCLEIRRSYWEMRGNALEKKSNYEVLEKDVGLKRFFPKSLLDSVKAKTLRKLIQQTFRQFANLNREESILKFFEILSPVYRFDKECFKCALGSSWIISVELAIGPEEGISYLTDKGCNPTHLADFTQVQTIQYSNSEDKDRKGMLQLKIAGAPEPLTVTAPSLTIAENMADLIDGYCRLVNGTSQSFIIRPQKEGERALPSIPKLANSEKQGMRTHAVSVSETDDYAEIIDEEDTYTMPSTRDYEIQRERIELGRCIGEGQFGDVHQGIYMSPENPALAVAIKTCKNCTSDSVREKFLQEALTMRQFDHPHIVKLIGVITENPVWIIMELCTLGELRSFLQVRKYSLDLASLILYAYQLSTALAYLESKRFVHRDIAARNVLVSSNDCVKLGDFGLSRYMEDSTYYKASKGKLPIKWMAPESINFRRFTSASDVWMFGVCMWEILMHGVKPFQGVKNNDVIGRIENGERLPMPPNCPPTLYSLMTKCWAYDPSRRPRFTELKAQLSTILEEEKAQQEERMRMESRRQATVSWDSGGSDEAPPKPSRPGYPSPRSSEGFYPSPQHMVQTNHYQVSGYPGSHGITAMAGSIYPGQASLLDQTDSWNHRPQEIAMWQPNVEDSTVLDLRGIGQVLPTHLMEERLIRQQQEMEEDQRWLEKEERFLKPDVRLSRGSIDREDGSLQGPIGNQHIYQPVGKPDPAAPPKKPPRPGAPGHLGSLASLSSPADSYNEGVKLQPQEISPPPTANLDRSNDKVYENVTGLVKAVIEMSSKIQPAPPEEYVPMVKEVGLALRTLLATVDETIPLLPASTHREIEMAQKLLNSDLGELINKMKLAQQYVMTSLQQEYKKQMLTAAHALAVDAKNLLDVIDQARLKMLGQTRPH

Work on `CSc1ncnc2c1ccn2C1O[C@H](COP(=O)(O)O)[C@@H](O)[C@H]1O` (stereo partly drawn) [INT2-31, 4-(Methylthio)-7-(5-O-phosphono-D-ribofuranosyl)-{7H-Pyrrolo[2,3-d]pyrimidine}] yielded an IC50 of 3.17 µM.
